System: 362531-283-R-J2-PDC complex spheroid viability
Assay: Anticancer human tumor 362531-283-R-J2-PDC patient-derived colon adenocarcinoma cell line growth inhibition [RAS]
Conditions: for IC50: curve of first compound; for viability, T/C: stronger effect = lower value
How it was run: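 Multi-cell-type spheroids: tumor cells plus HUVEC endothelial cells and mesenchymal stem cells. RAS-pathway inhibitors were combined with targeted agents, each dosed in half-log steps down from clinical Cmax, or from 10 microM when Cmax was unknown.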

[1] = second compound 0.00316 µM, first compound 0.0316 µM
[2] = second compound 0.00316 µM, first compound 0.1 µM
[3] = second compound 0.00316 µM, first compound 0.316 µM
[4] = second compound 0.00316 µM, first compound 1 µM
[5] = second compound 0.00316 µM, first compound 3.16 µM
[6] = second compound 0.00316 µM, first compound 10 µM
[7] = second compound 0.01 µM, first compound 0.0316 µM
[8] = second compound 0.01 µM, first compound 0.1 µM
[9] = second compound 0.01 µM, first compound 0.316 µM
[10] = second compound 0.01 µM, first compound 1 µM
[11] = second compound 0.01 µM, first compound 3.16 µM
[12] = second compound 0.01 µM, first compound 10 µM
[13] = second compound 0.0316 µM, first compound 0.0316 µM
[14] = second compound 0.0316 µM, first compound 0.1 µM
[15] = second compound 0.0316 µM, first compound 0.316 µM
[16] = second compound 0.0316 µM, first compound 1 µM
[17] = second compound 0.0316 µM, first compound 3.16 µM
[18] = second compound 0.0316 µM, first compound 10 µM
[19] = second compound 0.1 µM, first compound 0.0316 µM
[20] = second compound 0.1 µM, first compound 0.1 µM
[21] = second compound 0.1 µM, first compound 0.316 µM
[22] = second compound 0.1 µM, first compound 1 µM
[23] = second compound 0.1 µM, first compound 3.16 µM
[24] = second compound 0.1 µM, first compound 10 µM
[25] = second compound 0.316 µM, first compound 0.0316 µM
[26] = second compound 0.316 µM, first compound 0.1 µM
[27] = second compound 0.316 µM, first compound 0.316 µM
[28] = second compound 0.316 µM, first compound 1 µM
[29] = second compound 0.316 µM, first compound 3.16 µM
[30] = second compound 0.316 µM, first compound 10 µM
[31] = second compound 1 µM, first compound 0.0316 µM
[32] = second compound 1 µM, first compound 0.1 µM
[33] = second compound 1 µM, first compound 0.316 µM
[34] = second compound 1 µM, first compound 1 µM
[35] = second compound 1 µM, first compound 3.16 µM
[36] = second compound 1 µM, first compound 10 µM
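Further: spheroids exposed to the agents for 7 days before readout.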
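Wherever viability, T/C is given: luminescence viability as percent of DMSO vehicle control wells.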

For `CC1(O)CCCC1n1c(=O)c(C(F)F)cc2cnc(NC3CCN(S(C)(=O)=O)CC3)nc21` (stereo unspecified) + C=CC(=O)N1CCN(c2nc(OCC3CCCN3C)nc3c(F)c(-c4nc(N)cc(C)c4C(F)(F)F)c(Cl)cc23)C(C)C1, the IC50 (second compound 0.00316 µM) was > 10 µM, the IC50 (second compound 0.01 µM) was > 10 µM and the IC50 (second compound 0.0316 µM) was > 10 µM. The IC50 (second compound 0.1 µM) was > 10 µM, the IC50 (second compound 0.316 µM) was > 10 µM and the IC50 (second compound 1 µM) was > 10 µM. The viability, T/C [1] was 97.6%, the viability, T/C [2] was 98% and the viability, T/C [3] was 77.6%. For the same compound, the viability, T/C [4] was 68.3%, the viability, T/C [5] was 64.8% and the viability, T/C [6] was 101%. The viability, T/C [7] was 101%, the viability, T/C [8] was 97.1% and the viability, T/C [9] was 83.1%. The viability, T/C [10] was 75.5%, the viability, T/C [11] was 68.6% and the viability, T/C [12] was 65.7%. For the same compound, the viability, T/C [13] was 102%, the viability, T/C [14] was 93.2% and the viability, T/C [15] was 82.8%. The viability, T/C [16] was 76.1%, the viability, T/C [17] was 60% and the viability, T/C [18] was 95.2%. For the same compound, the viability, T/C [19] was 91.5%, the viability, T/C [20] was 95% and the viability, T/C [21] was 93.5%. The viability, T/C [22] was 75.2%, the viability, T/C [23] was 54.1% and the viability, T/C [24] was 89.7%. The viability, T/C [25] was 97.2%, the viability, T/C [26] was 92.5% and the viability, T/C [27] was 89.2%. The viability, T/C [28] was 70.2%, the viability, T/C [29] was 64.4% and the viability, T/C [30] was 69.1%. It also gave a viability, T/C [31] of 98.6%, a viability, T/C [32] of 104% and a viability, T/C [33] of 89.9%. The viability, T/C [34] was 77.4%, the viability, T/C [35] was 70.8% and the viability, T/C [36] was 53%.

For `CCN1CCN(Cc2ccc(Nc3ncc(F)c(-c4cc(F)c5nc(C)n(C(C)C)c5c4)n3)nc2)CC1` + C=CC(=O)N1CCN(c2nc(OCC3CCCN3C)nc3c(F)c(-c4nc(N)cc(C)c4C(F)(F)F)c(Cl)cc23)C(C)C1, the IC50 (second compound 0.00316 µM) was > 1 µM, the IC50 (second compound 0.01 µM) was > 1 µM and the IC50 (second compound 0.0316 µM) was > 1 µM. The IC50 (second compound 0.1 µM) was > 1 µM, the IC50 (second compound 0.316 µM) was > 1 µM and the IC50 (second compound 1 µM) was > 1 µM. The viability, T/C (second compound 0.00316 µM, first compound 0.00316 µM) was 108%, the viability, T/C (second compound 0.00316 µM, first compound 0.01 µM) was 99.2% and the viability, T/C [1] was 106%. For the same compound, the viability, T/C [2] was 76%, the viability, T/C [3] was 66.9% and the viability, T/C [4] was 80.2%. It also gave a viability, T/C (second compound 0.01 µM, first compound 0.00316 µM) of 93.5%, a viability, T/C (second compound 0.01 µM, first compound 0.01 µM) of 101% and a viability, T/C [7] of 88.2%. It also gave a viability, T/C [8] of 78.3%, a viability, T/C [9] of 66.7% and a viability, T/C [10] of 71.4%. For the same compound, the viability, T/C (second compound 0.0316 µM, first compound 0.00316 µM) was 99.1%, the viability, T/C (second compound 0.0316 µM, first compound 0.01 µM) was 94.3% and the viability, T/C [13] was 96.7%. For the same compound, the viability, T/C [14] was 68.3%, the viability, T/C [15] was 66.9% and the viability, T/C [16] was 100%. The viability, T/C (second compound 0.1 µM, first compound 0.00316 µM) was 102%, the viability, T/C (second compound 0.1 µM, first compound 0.01 µM) was 108% and the viability, T/C [19] was 98.8%. For the same compound, the viability, T/C [20] was 70%, the viability, T/C [21] was 73.3% and the viability, T/C [22] was 82.5%. The viability, T/C (second compound 0.316 µM, first compound 0.00316 µM) was 114%, the viability, T/C (second compound 0.316 µM, first compound 0.01 µM) was 94.8% and the viability, T/C [25] was 101%. For the same compound, the viability, T/C [26] was 73%, the viability, T/C [27] was 77.9% and the viability, T/C [28] was 81.1%. It also gave a viability, T/C (second compound 1 µM, first compound 0.00316 µM) of 102%, a viability, T/C (second compound 1 µM, first compound 0.01 µM) of 108% and a viability, T/C [31] of 94.6%. For the same compound, the viability, T/C [32] was 70.8%, the viability, T/C [33] was 69.9% and the viability, T/C [34] was 72.9%.

In the case of `C[C@@H](NC(=O)c1ncnc(N)c1Cl)c1ncc(C(=O)Nc2cc(C(F)(F)F)c(Cl)cn2)s1` + C=CC(=O)N1CCN(c2nc(OCC3CCCN3C)nc3c(F)c(-c4nc(N)cc(C)c4C(F)(F)F)c(Cl)cc23)C(C)C1, the IC50 (second compound 0.00316 µM) is reported as > 10 µM, the IC50 (second compound 0.01 µM) is reported as > 10 µM and the IC50 (second compound 0.0316 µM) is reported as > 10 µM. For the same compound, the IC50 (second compound 0.1 µM) was > 10 µM, the IC50 (second compound 0.316 µM) was > 10 µM and the IC50 (second compound 1 µM) was > 10 µM. For the same compound, the viability, T/C [1] was 102%, the viability, T/C [2] was 109% and the viability, T/C [3] was 115%. For the same compound, the viability, T/C [4] was 99.1%, the viability, T/C [5] was 84.9% and the viability, T/C [6] was 63.8%. It also gave a viability, T/C [7] of 103%, a viability, T/C [8] of 95% and a viability, T/C [9] of 93.1%. It also gave a viability, T/C [10] of 97.6%, a viability, T/C [11] of 87.3% and a viability, T/C [12] of 67.4%. It also gave a viability, T/C [13] of 107%, a viability, T/C [14] of 99.7% and a viability, T/C [15] of 98.6%. For the same compound, the viability, T/C [16] was 105%, the viability, T/C [17] was 91.2% and the viability, T/C [18] was 63.4%. It also gave a viability, T/C [19] of 104%, a viability, T/C [20] of 112% and a viability, T/C [21] of 97.9%. The viability, T/C [22] was 96.3%, the viability, T/C [23] was 99.9% and the viability, T/C [24] was 60.3%. The viability, T/C [25] was 103%, the viability, T/C [26] was 95.2% and the viability, T/C [27] was 100%. The viability, T/C [28] was 103%, the viability, T/C [29] was 102% and the viability, T/C [30] was 67.2%. For the same compound, the viability, T/C [31] was 107%, the viability, T/C [32] was 104% and the viability, T/C [33] was 99.3%. It also gave a viability, T/C [34] of 106%, a viability, T/C [35] of 97.7% and a viability, T/C [36] of 63.6%.

Source: PubChem BioAssay AID2060909 (Molecular Pharmacology Branch, DTP, NCI, 2025)
